pIC50: −log10 of the molar value.
Experiments:
Aβ1-42 = molecular target: T1, Aβ1-42 (Homo sapiens, UniProt P05067); test: FRET assay of Aβ1-42 oligomer (ADDL) formation; format: biochemical; conditions: for pIC50: assay of Example 1, 0.2 µM FITC-Aβ(1-42) and 0.8 µM Aβ(1-42), 100 mM MgCl2, pH 8.0, 37°C
T1 construct: containing 0.2 µM FITC-Aβ(1-42) and 0.8 µM Aβ(1-42)
From the text: Fluorescence (or Förster) Resonance Energy Transfer (FRET) is a distance-dependent, non-radiative transfer of energy in which the de-excitation of one fluorophore (donor) is coupled to excitation of another fluorophore (acceptor). FRET occurs if (1) the quantum of energy emitted by a donor fluorophore corresponds to an acceptor fluorophore's excitation energy, (2) the orientations of donor and acceptor transition dipoles are nearly parallel and (3) the donor fluorescent emission spectrum overlaps the acceptor absorption spectrum.
In this assay, Aβ1-42 oligomer formation is monitored by FRET using N-terminal conjugates of fluorescein-Aβ1-42 as both the donor and acceptor fluorophore (fluorescein-fluorescein Ro∼45 Å). […] Inhibition of Aβ1-42 assembly is observed as the absence or attenuation of fluorescein quenching.
FRET and FP assays are performed in 384-well Coming Non-Binding Surface, black, opaque microtiter plates, and the assay buffer consists of 50 mM MOPS-Tris (pH 8.0) with 100 mM MgCl2. […] ADDL assembly is monitored on a Tecan GENios Pro plate reader, exciting at a wavelength of 485 nm and detecting emission at a wavelength of 515 nm. Kinetic traces are collected by recording fluorescence intensity and polarization readings every five minutes over about three to about a six-hour time course. […] Positive control reactions contain all buffer components in the absence of added small molecule or antibody reagents. […]

Aβ1-42 ADDLs = molecular target: T2, Aβ1-42 ADDLs (Homo sapiens, UniProt P05067); test: Alternating Lever Cyclic Ratio (ALCR) rat model; format: in vivo; conditions: for Approach Errors Mean / Perseveration Errors Mean: 20 µl via cannula aimed at lateral ventricle, tested about 3 hours following injection, base line error rate equalized to 1.00
T2 construct: Synthetic Aβ1-42 powder was dissolved in 1,1,1,3,3,3 hexafluorisopropanol (HFIP)
T2 sequence (P05067 672-713 limits assumed): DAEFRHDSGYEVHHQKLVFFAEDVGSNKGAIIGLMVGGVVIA
Protocol: Preparations of Aβ1-42 ADDLs and a potential therapeutic compounds under the Alternating Lever Cyclic Ratio (ALCR) rat model of AD were tested. This highly sensitive model has been able to detect cognitive deficits due to direct injection of cell-derived Aβ oligomers into rat brain. In this study, a direct injection of ADDLs made from synthetic Aβ1-42 and a putative therapeutic compound under the ALCR procedure were tested.
The ALCR test has proven to be much more sensitive than previously published methods for measuring drug effects on cognitive function. In this task, rats must learn a complex sequence of lever-pressing requirements in order to earn food reinforcement in a two-lever experimental chamber. Subjects must alternate between two levers by switching to the other lever after pressing the first lever enough to get food reward. The exact number of presses required for each food reward changes, first increasing from 2 responses per food pellet up to 56 presses per food pellet, then decreasing back to 2 responses per pellet. Intermediate values were based on the quadratic function, x^2 - x. One cycle was an entire ascending and descending sequence of these lever press requirements (e.g., 2, 6, 12, 20, 30, 42, 56, 56, 42, 30, 20, 12, 6, and 2 presses per food reward). Six such full cycles were presented during each daily session.
Synthetic Aβ1-42 powder was dissolved in 1,1,1,3,3,3 hexafluorisopropanol (HFIP) to afford a solution of Aβ1-42 in HFIP of about 1 mM and allowed to incubate at ambient temperature for about 1 h. The resulting solution was chilled on ice for about 5-10 min, then aliquoted into eppendorf tubes to provide about 50 µl of solution per tube. The tubes were then placed in a chemical fume hood and allowed to stand overnight to allow the HFIP to evaporate under a slow stream of nitrogen. To removed final traces of HFIP, the tubes were subjected to two SpeedVac cycles of 15 min at room temperature and about 15 to 25 in Hg of vacuum. The resulting films of monomerized Aβ1-42 peptide were stored over desiccant at -80 °C until used.
A tube of monomerized Aβ1-42 peptide was warmed to room temperature and the Aβ1-42 peptide was dissolved in anhydrous DMSO to afford a peptide stock DMSO solution containing about 10 µM to about 100 µM Aβ1-42 peptide in DMSO.
2 µl of a 20 mM stock solution of test compound in anhydrous DMSO is added to 998 µl of neural basal media (phenol red free, Gibco 12348-017) to give a compound neural basal media solution containing 40 µM of test compound in neural basal media.
For the Aβ1-42 peptide only treatment, peptide stock DMSO solution is added to 37 °C neural basal to obtain the requisite Aβ1-42 peptide monomer concentration, provided that the maximum concentration of DMSO is 1% or less, and the tube is vortexed for 30 to 60 seconds, spun down briefly in a microfuge and incubated at 37 °C for 15 min prior to the start of injections.
For the Aβ1-42 peptide plus test compound treatment, peptide stock DMSO solution is added to 37 °C compound neural basal media solution to obtain the requisite Aβ1-42 peptide monomer concentration, provided that the maximum concentration of DMSO is 1% or less, and the tube is vortexed for 30 to 36 seconds, spun down briefly in a microfuge and incubated at 37 °C for 15 min prior to the start of injections.
For control injections, compound neural basal media solution is incubated at 37 °C for 15 min prior to the start of injections.
Rats: Rats were trained under ALCR until their error rates were stable. Once the rats were placed upon the final ALCR procedure, training sessions were conducted 7 days each week until the end of the study.
Surgery: All rats received a single 28 ga cannula, which was permanently affixed to the skull, and aimed at the lateral ventricle. Half the rats received cannula in the right ventricle and half received cannula in the left ventricle. Rats were allowed 5 days to recover from surgery before training resumed. […]

[1] = compound combined with Aβ1-42 ADDLs

T1 sequence (P05067 672-713 limits assumed): as above

Compound	pIC50 (Aβ1-42)	further results
CC(C)CCC1=NN(C(=O)C(=O)NCCc2ccccc2)C(O)(C(F)(F)F)C1 (centres unmarked) [Compound 20, 2-(5-hydroxy-3-isopentyl-5-(trifluoromethyl)-4,5-dihydro-1H-pyrazol-1-yl)-2-oxo-N-phenethylacetamide]	4.77	
Aβ1-42 ADDLs: ADDLs made from synthetic Aβ1-42; soluble, oligomeric, globular, non-fibrillar, neurotoxic Aβ1-42 peptides		Approach Errors Mean (Aβ1-42 ADDLs; injectate given alone): 1.02; Perseveration Errors Mean (Aβ1-42 ADDLs; injectate given alone): 1.33; Perseveration Error rate (Aβ1-42 ADDLs; versus baseline error rates, ADDLs alone, result in words): significantly increased
CCCCCC1=NN(C(=O)C(=O)Nc2ccc(OC)cc2)C(O)(C(F)(F)F)C1 (centres unmarked) [Compound 19, 2-(5-hydroxy-3-pentyl-5-(trifluoromethyl)-4,5-dihydro-1H-pyrazol-1-yl)-N-(4-methoxyphenyl)-2-oxoacetamide]	5.06	
CCCCCC1=NN(C(=O)C(=O)Nc2ccc(Br)cc2)C(O)(C(F)(F)F)C1 (centres unmarked) [Compound 18, N-(4-bromophenyl)-2-(5-hydroxy-3-pentyl-5-(trifluoromethyl)-4,5-dihydro-1H-pyrazol-1-yl)-2-oxoacetamide]	4.94	
O=C(C/C(=N/NC(=O)c1ccccc1O)C(F)(F)F)c1cccs1 [Compound 2, 2-Hydroxy-benzoic acid [3-oxo-3-thiophen-2-yl-1-trifluoromethyl-prop-(Z)-ylidene]-hydrazide]	4.59	
NCCCS(=O)(=O)O [Alzhemed, 3-amino-1-propanesulfonic acid, reference compound]		inhibition of Aβ1-42 monomer assembly into Aβ oligomers (Aβ1-42; standard FRET assay conditions of Example 1, comparative example, FIG 2): inability
O=C(C/C(=N/NC(=O)c1ccccc1O)C(F)(F)F)c1ccco1 [Compound 3, 2-Hydroxy-benzoic acid [3-oxo-3-furan-2-yl-1-trifluoromethyl-prop-(Z)-ylidene)-hydrazide]	4.87	
CCC1=NN(C(=O)C(=O)Nc2ccc(Br)cc2)C(O)(C(F)(F)F)C1 (centres unmarked) [Compound 13, N-(4-bromophenyl)-2-(3-ethyl-5-hydroxy-5-(trifluoromethyl)-4,5-dihydro-1H-pyrazol-1-yl)-2-oxoacetamide]	4.77	
CCCCCCC1=NN(C(=O)C(=O)Nc2ccc(OC)cc2)C(O)(C(F)(F)F)C1 (centres unmarked) [Compound 22, 2-(3-hexyl-5-hydroxy-5-(trifluoromethyl)-4,5-dihydro-1H-pyrazol-1-yl)-N-(4-methoxyphenyl)-2-oxoacetamide]	5.09	
CCCC1=NN(C(=O)C(=O)Nc2ccc(Br)cc2)C(O)(C(F)(F)F)C1 (centres unmarked) [Compound 15, N-(4-bromophenyl)-2-(5-hydroxy-3-propyl-5-(trifluoromethyl)-4,5-dihydro-1H-pyrazol-1-yl)-2-oxoacetamide]	5.11	
CCCC1=NN(C(=O)C(=O)NCCc2ccccc2)C(O)(C(F)(F)F)C1 (centres unmarked) [Compound 14, 2-(5-hydroxy-3-propyl-5-(trifluoromethyl)-4,5-dihydro-1H-pyrazol-1-yl)-2-oxo-N-phenethylacetamide]	4.46	
CCCC1=NN(C(=O)C(=O)Nc2ccccc2OC)C(O)(C(F)(F)F)C1 (centres unmarked) [Compound 9, 2-(5-hydroxy-3-propyl-5-(trifluoromethyl)-4,5-dihydro-1H-pyrazol-1-yl)-N-(2-methoxyphenyl)-2-oxoacetamide]	5.19	
O=C(N/N=C/c1cc(Br)ccc1O)c1ccccc1O [Compound 27, (E)-N'-(5-bromo-2-hydroxybenzylidene)-2-hydroxybenzohydrazide]	4.71	
CCC1=NN(C(=O)C(=O)Nc2ccccc2OC)C(O)(C(F)(F)F)C1 (centres unmarked) [Compound 8, 2-(3-ethyl-5-hydroxy-5-(trifluoromethyl)-4,5-dihydro-1H-pyrazol-1-yl)-N-(2-methoxyphenyl)-2-oxoacetamide]	5.15	
O=C(N/N=C/c1cc(Br)cc(Br)c1O)c1ccccc1O [Compound 26, (E)-N'-(3,5-dibromo-2-hydroxybenzylidene)-2-hydroxybenzohydrazide]	5.24	
COc1ccccc1NC(=O)C(=O)N1N=C(C2CCCCC2)CC1(O)C(F)(F)F (centres unmarked) [Compound 23, 2-(3-cyclohexyl-5-hydroxy-5-(trifluoromethyl)-4,5-dihydro-1H-pyrazol-1-yl)-N-(2-methoxyphenyl)-2-oxoacetamide]	4.54	
CCCC1=NN(C(=O)c2ccccc2O)C(O)(C(F)(F)F)C1 (centres unmarked) [Compound 12, (5-hydroxy-3-propyl-5-(trifluoromethyl)-4,5-dihydro-1H-pyrazol-1-yl)(2-hydroxyphenyl)methanone]	5.07	
COc1ccccc1NC(=O)C(=O)N1N=C(C(C)C)CC1(O)C(F)(F)F (centres unmarked) [Compound 10, 2-(5-hydroxy-3-isopropyl-5-(trifluoromethyl)-4,5-dihydro-1H-pyrazol-1-yl)-N-(2-methoxyphenyl)-2-oxoacetamide]	4.61	
O=C(N/N=C/c1c(O)ccc2ccccc12)c1ccccc1O [Compound 24, (E)-2-hydroxy-N'-((2-hydroxynaphthalen-1-yl)methylene) benzohydrazide]		increase in Perseveration Errors (Aβ1-42 ADDLs; combined with the requisite concentration of Aβ1-42 ADDLs, result in words): eliminated the increase in Perseveration Errors; Approach Errors Mean (Aβ1-42 ADDLs; [1]): 1.00; Perseveration Errors Mean (Aβ1-42 ADDLs; [1]): 0.92; error rates (Aβ1-42 ADDLs; given alone, result in words): did not increase error rates; Approach Errors Mean (Aβ1-42 ADDLs; injectate given alone): 0.96; Perseveration Errors Mean (Aβ1-42 ADDLs; injectate given alone): 0.95
CCOC(=O)c1c(NC(=O)C(=O)N/N=C/c2ccccc2O)sc2c1CCC(C)C2 (centres unmarked) [Compound 7, 2-{[1-(2-Hydroxyphenyl)-meth-(E)-ylidene-hydrazinooxalyl]-amino} -6-methyl-4,5,6,7-tetrahydro-benzo[b]thiophene-3-carboxylic acid ethyl ester]		inhibition of Aβ1-42 oligomer assembly (Aβ1-42; 1 mM Aβ1-42 total monomer, 100 mM MgCl2, compound ranging from 0.05 to 3 mM, FIG. 1): dose dependent inhibition
CC(C)CC1=NN(C(=O)C(=O)NCCc2ccccc2)C(O)(C(F)(F)F)C1 (centres unmarked) [Compound 17, 2-(5-hydroxy-3-isobutyl-5-(trifluoromethyl)-0,5-dihydro-1H-pyrazol-1-yl)-2-oxo-N-phenethylacetamide]	4.38	
CCCCC1=NN(C(=O)C(=O)NCCc2ccccc2)C(O)(C(F)(F)F)C1 (centres unmarked) [Compound 16, 2-(3-butyl-5-hydroxy-5-(trifluoromethyl)-4,5-dihydro-1H-pyrazol-1-yl)-2-oxo-N-phenethylacetamide]	4.41	

Source: EP2173340B1, “METHODS OF ENHANCING COGNITIVE FUNCTION USING NON-PEPTIDIC COMPOUNDS” (Acumen Pharmaceuticals, Inc., priority 2007, dated 2009)
